# Experimental data taken from ChEMBL document CHEMBL1201862, “PubChem BioAssay data set” (2004).
# The source made the active and inactive calls.
# What was measured:
# [1] = molecular target: T1, Leucine aminopeptidase (Plasmodium falciparum 3D7, UniProt Q8IL11); assay: P. falciparum M17LAP inhibitors, primary screen, biochemical, fluorogenic H-Leu-NHMec substrate, 1536-well (AID 1619); format: functional
# T1 sequence (Q8IL11 whole entry): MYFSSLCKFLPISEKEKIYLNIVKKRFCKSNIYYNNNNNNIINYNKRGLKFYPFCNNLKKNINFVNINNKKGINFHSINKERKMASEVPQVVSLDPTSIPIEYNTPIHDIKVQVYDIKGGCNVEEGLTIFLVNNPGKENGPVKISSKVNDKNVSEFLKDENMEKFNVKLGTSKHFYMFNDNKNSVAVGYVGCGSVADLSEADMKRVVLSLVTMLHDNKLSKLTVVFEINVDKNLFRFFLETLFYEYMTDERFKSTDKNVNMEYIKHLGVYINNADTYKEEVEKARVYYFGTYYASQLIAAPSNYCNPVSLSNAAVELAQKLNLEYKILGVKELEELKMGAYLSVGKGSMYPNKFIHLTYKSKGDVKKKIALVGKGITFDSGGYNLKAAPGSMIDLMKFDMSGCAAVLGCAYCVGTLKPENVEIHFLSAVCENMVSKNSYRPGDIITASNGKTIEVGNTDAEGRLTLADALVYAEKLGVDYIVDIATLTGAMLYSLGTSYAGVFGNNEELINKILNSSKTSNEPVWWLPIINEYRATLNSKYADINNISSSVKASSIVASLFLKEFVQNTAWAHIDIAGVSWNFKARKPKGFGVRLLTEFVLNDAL
# [2] = molecular target: Peroxisome proliferator-activated receptor gamma/Nuclear receptor coactivator 1 (Homo sapiens, UniProt P37231); assay: (§1) TR-FRET dose response biochemical High Throughput Screening assay for agonists of the steroid receptor coactivator 1 (SRC-1) recruitment by the peroxisome proliferator-activated receptor gamma (PPAR gamma): non-selective agonists. [Related pubchem assays (depositor defined):AID1300, AID1808, AID504735, AID631]; format: protein assay
# [3] = molecular target: Peroxisome proliferator-activated receptor gamma/Nuclear receptor coactivator 3 (Homo sapiens, UniProt P37231); assay: as §1, with “3 (SRC-3)” for “1 (SRC-1)”, “assays: 1301 (Confirmation screen.), 1048 (Primary screen.)]” for “assays (depositor defined):AID1300, AID1808, AID504735, AID631]”; format: functional
# [4] = molecular target: Peroxisome proliferator-activated receptor gamma/Nuclear receptor coactivator 2 (Homo sapiens, UniProt P37231); assay: TR-FRET dose response biochemical High Throughput Screening assay for agonists of the steroid receptor coactivator 2 (SRC-2) recruitment by the peroxisome proliferator-activated receptor gamma (PPAR gamma): non-selective agonists. [Related pubchem assays: 1297, 1032 ]; format: functional
# [5] = molecular target: Intestinal-type alkaline phosphatase (Homo sapiens, UniProt P09923); assay: activation of human intestinal alkaline phosphatase – biochemical, dose response (AID 488873); format: functional
# [6] = molecular target: Intestinal-type alkaline phosphatase (Mus musculus, UniProt P24822); assay: mouse intestinal alkaline phosphatase activators, dose response, biochemical, luminescence, uHTS hits (AID 488783); format: functional
# [7] = molecular target: T2, Alkaline phosphatase, tissue-nonspecific isozyme (Homo sapiens, UniProt P05186); assay: activation of tissue-nonspecific alkaline phosphatase – biochemical, TNAP isozyme, mouse IAP uHTS hits, selectivity assay for mouse IAP activator project, dose response (AID 488880); format: functional
# T2 sequence (P05186 whole entry): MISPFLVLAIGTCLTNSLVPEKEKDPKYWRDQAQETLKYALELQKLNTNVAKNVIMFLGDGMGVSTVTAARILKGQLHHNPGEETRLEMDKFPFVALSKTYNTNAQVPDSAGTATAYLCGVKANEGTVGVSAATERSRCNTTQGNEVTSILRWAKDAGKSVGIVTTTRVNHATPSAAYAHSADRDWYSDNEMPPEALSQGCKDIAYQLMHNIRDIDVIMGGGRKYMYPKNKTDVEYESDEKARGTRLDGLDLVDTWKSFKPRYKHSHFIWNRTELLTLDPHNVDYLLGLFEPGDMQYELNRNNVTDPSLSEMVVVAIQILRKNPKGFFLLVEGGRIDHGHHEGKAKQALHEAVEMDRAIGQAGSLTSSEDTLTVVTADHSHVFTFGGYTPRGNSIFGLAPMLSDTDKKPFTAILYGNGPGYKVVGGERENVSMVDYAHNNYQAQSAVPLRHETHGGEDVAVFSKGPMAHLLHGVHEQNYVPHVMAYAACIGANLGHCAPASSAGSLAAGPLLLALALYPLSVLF
# [8] = molecular target: T3, CAAX prenyl protease 2 (Saccharomyces cerevisiae S288c, UniProt Q03530); format: biochemical
# T3 sequence (Q03530 whole entry): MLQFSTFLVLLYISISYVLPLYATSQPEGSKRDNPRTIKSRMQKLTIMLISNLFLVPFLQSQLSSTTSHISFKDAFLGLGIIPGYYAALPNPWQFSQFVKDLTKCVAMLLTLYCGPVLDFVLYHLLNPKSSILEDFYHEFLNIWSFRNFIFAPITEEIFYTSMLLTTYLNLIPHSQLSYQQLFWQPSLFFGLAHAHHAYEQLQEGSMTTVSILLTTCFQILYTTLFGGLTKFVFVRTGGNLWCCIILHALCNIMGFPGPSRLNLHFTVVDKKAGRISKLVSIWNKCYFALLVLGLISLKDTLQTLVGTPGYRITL
# [9] = toxicity toward cultured mammalian cells – cell-based, plate reader, cherry-pick samples, cytotoxicity control, dose response (AID 504397); format: functional
# [10] = molecular target: T4, CAAX prenyl protease 2 (Homo sapiens, UniProt Q9Y256); assay: inhibition of Ras-converting CAAX protease Rce1 – biochemical, yeast membranes, quenched-peptide fluorescence, cherry-pick, dose response (AID 588849)
# T4 sequence (Q9Y256 whole entry): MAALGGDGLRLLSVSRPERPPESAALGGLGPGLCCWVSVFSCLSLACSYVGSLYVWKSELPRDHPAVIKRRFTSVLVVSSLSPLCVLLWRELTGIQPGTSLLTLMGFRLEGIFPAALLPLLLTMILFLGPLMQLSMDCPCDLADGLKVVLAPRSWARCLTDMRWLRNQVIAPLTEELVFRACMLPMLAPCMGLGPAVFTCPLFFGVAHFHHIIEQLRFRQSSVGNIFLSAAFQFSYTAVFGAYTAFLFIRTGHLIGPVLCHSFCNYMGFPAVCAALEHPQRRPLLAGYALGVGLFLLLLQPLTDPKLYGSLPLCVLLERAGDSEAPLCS
# [11] = molecular target: T5, Bcl-2-related protein A1 (Mus musculus, UniProt Q07440); format: functional;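 also: confirmatory dose–response counterscreen on Bfl-1, used to check hits from a UBC13 polyubiquitin inhibitor campaign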
# T5 sequence (Q07440 whole entry): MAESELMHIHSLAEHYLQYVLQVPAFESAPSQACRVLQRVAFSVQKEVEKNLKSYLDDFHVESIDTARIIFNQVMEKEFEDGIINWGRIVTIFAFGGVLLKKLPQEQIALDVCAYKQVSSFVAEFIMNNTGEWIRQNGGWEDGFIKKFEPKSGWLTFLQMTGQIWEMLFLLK
# [12] = molecular target: T6, Ubiquitin-conjugating enzyme E2 N (Homo sapiens, UniProt P61088); format: functional
# T6 sequence (P61088 whole entry): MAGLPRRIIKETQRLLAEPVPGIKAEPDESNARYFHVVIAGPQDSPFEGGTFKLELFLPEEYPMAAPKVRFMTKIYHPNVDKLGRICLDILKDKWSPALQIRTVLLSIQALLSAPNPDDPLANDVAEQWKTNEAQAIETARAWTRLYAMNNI
# [13] = molecular target: T6, Ubiquitin-conjugating enzyme E2 N; format: functional; remark: listed apart in the source
# [14] = luciferase reporter signal suppression in cells – H4 neuroglioma cells, luminescence, dose response (AID 1990); format: functional, cell-based
# [15] = Luminescence Cell-Based Dose Response HTS to Identify Inhibitors of 5'UTR Stem-Loop Driven Prion Protein mRNA Translation in H4 Neuroglioblastoma Cells. [Related pubchem assays: 1827 (Project Summary), 1813 (Primary HTS)]; format: functional
# [16] = molecular target: T7, Voltage-gated N-type calcium channel alpha-1B subunit/Amyloid beta A4 precursor protein-binding family A member 1 (Homo sapiens, UniProt Q00975+Q02410); format: protein assay
# [17] = alpha-synuclein stem-loop luciferase translation blockers – H4 neuroglioma cells, luminescence, confirmation (AID 1988); format: functional, cell-based
# [18] = molecular target: T7, Voltage-gated N-type calcium channel alpha-1B subunit/Amyloid beta A4 precursor protein-binding family A member 1; format: protein assay; remark: listed apart in the source
# [19] = molecular target: T8, Mannose-6-phosphate isomerase (Homo sapiens, UniProt P34949); assay: phosphomannose isomerase inhibition – biochemical, fluorescence intensity, confirmation (AID 1535)
# T8 sequence (P34949 whole entry): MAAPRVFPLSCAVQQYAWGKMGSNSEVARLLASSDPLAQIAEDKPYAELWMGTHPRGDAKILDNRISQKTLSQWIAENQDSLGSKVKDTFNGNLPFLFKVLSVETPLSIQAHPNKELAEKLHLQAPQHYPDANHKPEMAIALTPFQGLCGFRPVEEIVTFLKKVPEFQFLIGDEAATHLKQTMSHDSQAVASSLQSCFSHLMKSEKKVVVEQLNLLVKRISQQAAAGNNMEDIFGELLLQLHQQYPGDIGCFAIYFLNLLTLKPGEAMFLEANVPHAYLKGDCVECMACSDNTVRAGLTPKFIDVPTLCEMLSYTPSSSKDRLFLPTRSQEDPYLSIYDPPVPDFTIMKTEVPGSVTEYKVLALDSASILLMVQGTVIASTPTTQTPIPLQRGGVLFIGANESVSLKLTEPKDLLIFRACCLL
# [20] = molecular target: T9, Phosphomannomutase 2 (Homo sapiens, UniProt O15305); assay: Counter screen SAR assay for PMM2 inhibitors via a fluorescence intensity assay. [Related pubchem assays (depositor defined):AID1545, AID1574]
# T9 sequence (O15305 whole entry): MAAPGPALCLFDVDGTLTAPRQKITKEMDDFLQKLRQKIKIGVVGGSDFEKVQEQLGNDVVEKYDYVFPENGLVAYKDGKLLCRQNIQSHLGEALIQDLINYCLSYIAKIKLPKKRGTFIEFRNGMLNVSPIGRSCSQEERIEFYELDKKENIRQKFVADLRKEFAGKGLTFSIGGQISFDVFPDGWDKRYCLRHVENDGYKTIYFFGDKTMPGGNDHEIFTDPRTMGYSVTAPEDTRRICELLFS
# [21] = molecular target: T10, Hexokinase HKDC1 (Homo sapiens, UniProt Q2TB90); assay: activation of HKDC1 glucose phosphorylation – biochemical, W721R variant, dose response (AID 504730); format: functional
# T10 sequence (Q2TB90 whole entry): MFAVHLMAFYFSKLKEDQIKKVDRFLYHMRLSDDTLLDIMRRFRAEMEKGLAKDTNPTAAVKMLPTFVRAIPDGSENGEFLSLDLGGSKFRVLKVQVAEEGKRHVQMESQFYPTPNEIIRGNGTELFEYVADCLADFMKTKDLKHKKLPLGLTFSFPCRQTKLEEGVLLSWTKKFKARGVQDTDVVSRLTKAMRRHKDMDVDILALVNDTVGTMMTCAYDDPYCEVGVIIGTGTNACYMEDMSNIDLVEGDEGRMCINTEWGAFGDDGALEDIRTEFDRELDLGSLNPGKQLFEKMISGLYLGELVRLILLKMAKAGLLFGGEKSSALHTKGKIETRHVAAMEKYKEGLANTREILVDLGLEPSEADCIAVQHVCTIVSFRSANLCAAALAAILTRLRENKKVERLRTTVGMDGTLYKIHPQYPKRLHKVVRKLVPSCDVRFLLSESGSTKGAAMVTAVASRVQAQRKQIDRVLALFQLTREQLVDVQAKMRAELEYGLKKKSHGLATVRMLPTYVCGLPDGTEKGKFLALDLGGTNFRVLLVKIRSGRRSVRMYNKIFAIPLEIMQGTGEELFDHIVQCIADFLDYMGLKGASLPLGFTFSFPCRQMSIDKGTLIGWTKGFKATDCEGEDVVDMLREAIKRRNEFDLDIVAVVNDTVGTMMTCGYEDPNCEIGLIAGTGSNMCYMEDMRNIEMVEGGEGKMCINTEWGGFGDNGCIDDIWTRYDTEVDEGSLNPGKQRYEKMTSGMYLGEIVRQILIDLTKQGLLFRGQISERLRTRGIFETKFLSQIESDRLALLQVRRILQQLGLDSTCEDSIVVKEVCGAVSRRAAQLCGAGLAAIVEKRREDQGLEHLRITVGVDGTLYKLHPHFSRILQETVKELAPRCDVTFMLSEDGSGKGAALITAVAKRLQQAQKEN
# [22] = molecular target: Eukaryotic translation initiation factor 4E (Mus musculus, UniProt P63073); assay: blockers of eIF4G binding by eIF4E – biochemical, TR-FRET, dose response (AID 855); format: functional;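 also: potency for disrupting eIF4E binding to eIF4GI seen as loss of FRET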
# [23] = molecular target: DNA dC->dU-editing enzyme APOBEC-3G (Homo sapiens, UniProt Q9HC16); assay: Dose Response confirmation of small molecule APOBEC3G DNA Deaminase Inhibitors via a fluorescence-based single-stranded DNA deaminase assay. [Related pubchem assays (depositor defined):AID493012, AID493028]; format: functional
# [24] = molecular target: Hexokinase-1 (Homo sapiens, UniProt P19367); assay: HK1 enzyme activation by HKDC1 hits – biochemical, selectivity assay for HKDC1 activator project, dose response (AID 504762); format: functional
# Sequence of Hexokinase-1 (P19367 whole entry): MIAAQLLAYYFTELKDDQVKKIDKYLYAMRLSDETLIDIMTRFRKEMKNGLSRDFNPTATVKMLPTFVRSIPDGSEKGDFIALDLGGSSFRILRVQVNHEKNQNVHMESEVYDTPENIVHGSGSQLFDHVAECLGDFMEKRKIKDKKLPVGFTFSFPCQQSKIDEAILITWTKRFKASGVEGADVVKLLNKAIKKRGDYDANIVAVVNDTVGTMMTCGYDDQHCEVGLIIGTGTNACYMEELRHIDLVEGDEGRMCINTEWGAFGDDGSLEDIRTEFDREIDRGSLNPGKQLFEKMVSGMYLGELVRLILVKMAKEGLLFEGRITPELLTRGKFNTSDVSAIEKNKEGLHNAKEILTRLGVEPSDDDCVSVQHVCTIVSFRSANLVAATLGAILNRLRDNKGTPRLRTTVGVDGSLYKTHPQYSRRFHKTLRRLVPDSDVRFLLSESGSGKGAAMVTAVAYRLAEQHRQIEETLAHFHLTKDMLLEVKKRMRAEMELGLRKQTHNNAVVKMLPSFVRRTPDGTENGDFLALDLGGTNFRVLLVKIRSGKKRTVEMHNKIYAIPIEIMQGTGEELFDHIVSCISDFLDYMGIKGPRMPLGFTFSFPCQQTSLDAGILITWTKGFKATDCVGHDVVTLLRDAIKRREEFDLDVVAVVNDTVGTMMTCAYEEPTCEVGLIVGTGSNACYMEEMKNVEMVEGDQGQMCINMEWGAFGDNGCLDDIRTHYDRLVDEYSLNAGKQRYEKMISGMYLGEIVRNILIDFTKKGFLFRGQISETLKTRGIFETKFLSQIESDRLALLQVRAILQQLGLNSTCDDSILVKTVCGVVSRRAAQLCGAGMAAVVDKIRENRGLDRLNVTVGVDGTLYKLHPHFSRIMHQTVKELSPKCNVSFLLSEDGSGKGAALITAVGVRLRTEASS
# T7 sequence (Q00975 whole entry): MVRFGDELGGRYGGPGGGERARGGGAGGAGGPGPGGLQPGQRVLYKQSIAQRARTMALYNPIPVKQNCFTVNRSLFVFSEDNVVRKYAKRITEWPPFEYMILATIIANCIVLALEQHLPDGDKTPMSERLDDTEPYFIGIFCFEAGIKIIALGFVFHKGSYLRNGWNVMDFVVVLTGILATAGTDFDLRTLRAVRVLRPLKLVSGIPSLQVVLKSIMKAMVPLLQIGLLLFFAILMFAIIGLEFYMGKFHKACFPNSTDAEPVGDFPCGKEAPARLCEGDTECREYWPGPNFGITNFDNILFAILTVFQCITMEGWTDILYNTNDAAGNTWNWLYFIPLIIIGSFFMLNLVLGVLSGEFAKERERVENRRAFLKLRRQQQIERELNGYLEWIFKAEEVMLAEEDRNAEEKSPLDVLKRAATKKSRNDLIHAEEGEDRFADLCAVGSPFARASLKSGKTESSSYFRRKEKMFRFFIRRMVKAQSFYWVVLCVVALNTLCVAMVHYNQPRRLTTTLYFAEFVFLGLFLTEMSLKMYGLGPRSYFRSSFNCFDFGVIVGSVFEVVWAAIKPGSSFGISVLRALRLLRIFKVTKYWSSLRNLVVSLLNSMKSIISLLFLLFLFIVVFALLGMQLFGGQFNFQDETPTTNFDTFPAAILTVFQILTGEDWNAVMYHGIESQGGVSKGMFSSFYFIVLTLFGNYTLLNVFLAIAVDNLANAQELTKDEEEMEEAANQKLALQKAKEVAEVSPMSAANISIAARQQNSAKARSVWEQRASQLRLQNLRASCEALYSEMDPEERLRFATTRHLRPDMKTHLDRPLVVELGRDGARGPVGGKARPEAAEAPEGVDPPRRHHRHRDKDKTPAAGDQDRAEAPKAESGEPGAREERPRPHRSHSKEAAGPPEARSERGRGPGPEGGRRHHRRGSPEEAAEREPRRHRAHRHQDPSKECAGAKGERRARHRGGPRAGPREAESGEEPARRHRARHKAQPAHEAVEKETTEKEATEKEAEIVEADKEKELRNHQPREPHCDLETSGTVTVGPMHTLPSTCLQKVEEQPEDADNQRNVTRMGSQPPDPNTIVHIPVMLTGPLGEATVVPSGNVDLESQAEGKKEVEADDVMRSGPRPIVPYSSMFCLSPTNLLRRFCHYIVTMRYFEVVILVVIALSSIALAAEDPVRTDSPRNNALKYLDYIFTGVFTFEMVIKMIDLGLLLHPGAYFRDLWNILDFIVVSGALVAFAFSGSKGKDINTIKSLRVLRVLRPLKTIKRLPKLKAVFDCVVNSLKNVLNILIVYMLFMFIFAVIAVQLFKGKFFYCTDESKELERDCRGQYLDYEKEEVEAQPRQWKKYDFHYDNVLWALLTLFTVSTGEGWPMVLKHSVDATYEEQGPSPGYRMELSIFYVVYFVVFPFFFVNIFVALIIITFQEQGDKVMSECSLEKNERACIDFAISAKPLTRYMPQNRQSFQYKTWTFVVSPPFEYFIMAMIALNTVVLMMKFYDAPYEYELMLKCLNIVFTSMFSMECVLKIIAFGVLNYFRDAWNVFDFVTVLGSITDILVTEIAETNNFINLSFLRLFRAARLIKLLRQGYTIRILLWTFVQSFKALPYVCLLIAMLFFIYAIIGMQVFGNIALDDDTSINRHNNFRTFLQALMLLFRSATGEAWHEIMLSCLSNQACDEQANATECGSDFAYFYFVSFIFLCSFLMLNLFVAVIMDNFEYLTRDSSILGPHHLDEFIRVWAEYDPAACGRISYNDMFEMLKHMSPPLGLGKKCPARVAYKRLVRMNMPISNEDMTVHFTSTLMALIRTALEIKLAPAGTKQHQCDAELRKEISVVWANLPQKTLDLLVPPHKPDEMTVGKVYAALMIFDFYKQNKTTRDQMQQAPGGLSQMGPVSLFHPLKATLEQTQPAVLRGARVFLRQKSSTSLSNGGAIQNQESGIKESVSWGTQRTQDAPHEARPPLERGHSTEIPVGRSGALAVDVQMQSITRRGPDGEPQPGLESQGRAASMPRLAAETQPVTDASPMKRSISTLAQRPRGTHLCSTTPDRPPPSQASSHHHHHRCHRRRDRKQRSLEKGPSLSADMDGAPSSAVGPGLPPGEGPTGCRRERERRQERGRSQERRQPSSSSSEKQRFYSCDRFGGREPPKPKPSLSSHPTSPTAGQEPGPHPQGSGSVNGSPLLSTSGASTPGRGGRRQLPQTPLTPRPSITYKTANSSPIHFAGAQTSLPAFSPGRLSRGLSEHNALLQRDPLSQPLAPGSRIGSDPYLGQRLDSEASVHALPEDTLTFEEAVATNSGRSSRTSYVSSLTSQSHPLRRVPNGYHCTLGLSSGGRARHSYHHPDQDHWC
# T7 sequence (Q02410 whole entry): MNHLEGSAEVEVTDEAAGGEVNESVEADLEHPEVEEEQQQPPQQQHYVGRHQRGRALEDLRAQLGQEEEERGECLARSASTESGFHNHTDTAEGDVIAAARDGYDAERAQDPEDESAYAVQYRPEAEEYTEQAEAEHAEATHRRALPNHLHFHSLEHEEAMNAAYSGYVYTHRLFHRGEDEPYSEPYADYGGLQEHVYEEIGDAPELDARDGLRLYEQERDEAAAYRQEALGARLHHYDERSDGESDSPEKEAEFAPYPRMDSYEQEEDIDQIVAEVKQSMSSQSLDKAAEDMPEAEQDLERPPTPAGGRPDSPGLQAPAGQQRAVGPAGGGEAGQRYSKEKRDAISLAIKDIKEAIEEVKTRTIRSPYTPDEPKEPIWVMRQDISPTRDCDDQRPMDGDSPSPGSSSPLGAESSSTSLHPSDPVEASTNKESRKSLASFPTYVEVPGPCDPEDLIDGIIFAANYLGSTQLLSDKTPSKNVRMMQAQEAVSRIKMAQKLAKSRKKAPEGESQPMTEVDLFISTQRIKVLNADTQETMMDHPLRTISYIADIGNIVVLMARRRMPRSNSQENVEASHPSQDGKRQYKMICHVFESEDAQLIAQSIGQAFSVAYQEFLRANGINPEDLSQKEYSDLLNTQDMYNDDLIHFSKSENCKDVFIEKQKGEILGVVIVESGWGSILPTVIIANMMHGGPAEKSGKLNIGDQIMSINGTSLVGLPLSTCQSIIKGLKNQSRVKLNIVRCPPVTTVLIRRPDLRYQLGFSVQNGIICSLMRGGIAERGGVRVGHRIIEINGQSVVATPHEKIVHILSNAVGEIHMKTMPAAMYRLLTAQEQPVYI
# Sequence of Eukaryotic translation initiation factor 4E (P63073 whole entry): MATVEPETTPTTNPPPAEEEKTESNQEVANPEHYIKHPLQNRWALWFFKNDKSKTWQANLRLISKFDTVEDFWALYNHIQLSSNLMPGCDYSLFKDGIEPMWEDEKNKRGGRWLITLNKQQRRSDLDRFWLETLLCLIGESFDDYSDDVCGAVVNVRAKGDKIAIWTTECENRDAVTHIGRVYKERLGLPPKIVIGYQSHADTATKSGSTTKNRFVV
# Sequence of Intestinal-type alkaline phosphatase (Mus musculus, UniProt P24822) (P24822 whole entry): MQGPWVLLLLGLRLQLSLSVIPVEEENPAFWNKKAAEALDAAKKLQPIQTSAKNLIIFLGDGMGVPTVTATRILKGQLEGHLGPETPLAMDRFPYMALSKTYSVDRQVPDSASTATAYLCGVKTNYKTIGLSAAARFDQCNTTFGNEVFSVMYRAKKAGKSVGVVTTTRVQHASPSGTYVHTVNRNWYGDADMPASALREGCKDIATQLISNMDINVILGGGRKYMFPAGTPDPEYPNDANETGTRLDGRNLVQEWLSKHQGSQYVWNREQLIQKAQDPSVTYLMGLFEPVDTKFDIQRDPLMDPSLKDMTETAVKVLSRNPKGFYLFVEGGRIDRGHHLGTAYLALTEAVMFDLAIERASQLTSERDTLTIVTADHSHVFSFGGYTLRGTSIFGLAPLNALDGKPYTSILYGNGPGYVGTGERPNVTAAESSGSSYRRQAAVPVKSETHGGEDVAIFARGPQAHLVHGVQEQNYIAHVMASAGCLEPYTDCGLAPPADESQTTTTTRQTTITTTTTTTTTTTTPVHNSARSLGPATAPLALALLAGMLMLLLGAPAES
smiles,measurement,setting,value
CCOC(=O)c1c(-c2cccs2)csc1NC(=O)CCCC(=O)O,IC50,[1],20.3 µM (active)
same,EC50,[2],69.1 µM (inactive)
same,EC50,[3],> 79.4 µM (not active)
same,EC50,[4],39.6 µM (not active)
Cc1ccc(NC(=O)CCNS(=O)(=O)c2ccc3[nH]c(=O)oc3c2)cc1F,EC50,[5],> 100 µM (inactive)
same,EC50,[6],1.76 µM (active)
same,EC50,[7],> 100 µM (inactive)
Cc1cccc(OCCN2C(=O)C(=O)c3cc(C)ccc32)c1,AC50,[8],1.11 µM (active)
same,AC50,[9],73.6 µM (active)
same,AC50,[10],18.1 µM (active)
CC(C)C[C@H](N)c1cn([C@@H](Cc2cc3ccccc3[nH]2)C(=O)N2CCNCC2)nn1,IC50,[11],> 20 µM (inactive)
same,IC50,[12],15.8 µM (active)
same,IC50,[13],14 µM (active)
Cc1ccc(/N=c2\ssnc2Cl)cc1,EC50,[14],> 120 µM (not active)
same,EC50,[15],> 120 µM (not active)
same,IC50,[16],9.27 µM (active)
same,EC50,[17],> 120 µM (not active)
same,IC50,[18],2.85 µM (active)
same,IC50,[19],18.6 µM (active)
same,IC50,[20],> 100 µM (inactive)
same,EC50,[21],59 µM (inactive)
same,IC50,[22],35.4 µM (inactive)
same,IC50,[23],10.2 µM (active)
same,EC50,[24],53.2 µM (inactive)
